According to patent publication US7422846B2, “Natural ligand for orphan G protein coupled receptor GPR86 and methods of use” (Euroscreen S.A, priority 2001, dated 2008):
Read-outs that look alike come from different tables or passages of the source.

Experiments:
[1] = target: T1, GPR86 (P2Y13) human receptor (Homo sapiens, UniProt Q9BPV8, T179M); assay: IP3 accumulation in 1321N1 cells (AG32) expressing GPR86 (P2Y13) together with Gα16; format: cell-based; parameters: expressed in transfected cells; host or cells: 1321N1 astrocytoma clone AG32 (stably expressing Gα16 from pERAEQ2), G418-selected; details: for effect on IP3 accumulation: 100 nM and 10 μM; for IP3 response to nucleotides: 100 μM for 30 s, pool of G418-resistant clones expressing GPR86 and Gα16; for IP3 responses after treatment of the nucleotide solutions with CPK and CP (ATP-regenerating system): 1 mM solutions, 20 units/ml CPK, 10 mM CP, 90 min, FIG. 4B; for agonist character at human P2Y13 receptor: after creatinephosphate and creatinephosphokinase treatment
T1 sequence (Q9BPV8 22-354 T179M): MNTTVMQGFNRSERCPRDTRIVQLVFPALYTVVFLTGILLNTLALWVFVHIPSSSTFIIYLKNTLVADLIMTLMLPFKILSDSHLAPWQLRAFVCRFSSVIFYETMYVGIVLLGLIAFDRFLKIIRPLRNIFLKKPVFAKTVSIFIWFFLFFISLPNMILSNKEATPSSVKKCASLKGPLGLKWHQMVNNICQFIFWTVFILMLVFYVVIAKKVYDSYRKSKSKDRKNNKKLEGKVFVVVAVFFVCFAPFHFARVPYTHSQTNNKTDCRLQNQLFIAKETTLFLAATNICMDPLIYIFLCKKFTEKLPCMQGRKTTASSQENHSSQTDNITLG
Description: Cells of the invention, for example, 1321N1 cells, are labelled for 24 hours with 10 μCi/ml [^3H] inositol in inositol free DMEM containing 5% FCS, antibiotics, amphotericin, sodium pyruvate and 400 μg/ml G418. Cells are incubated for 2 h in Krebs-Ringer Hepes (KRH) buffer of the following composition (124 mM NaCl, 5 mM KCl, 1.25 mM MgSO4, 1.45 mM CaCl2, 1.25 mM KH2PO4, 25 mM Hepes (pH: 7.4) and 8 mM glucose). The cells are then challenged with various nucleotides for 30 s. The incubation is stopped by the addition of an ice cold 3% perchloric acid solution. IP are extracted and separated on Dowex columns as previously described (25). 2MeSATP and ATP solutions (1 mM) are treated at room temperature with 20 units/ml CPK and 10 Mm cp for 90 min to circumvent problems arising from the contamination and degradation of triphosphate nucleotide solutions.
CHO-K1 and 1321N1 cells were transfected with the recombinant GPR86-pEFIN5 plasmid or with the plasmid alone using the FuGENE™6 transfection reagent (Roche Molecular Biochemicals). A clone called AG32 corresponding to 1321N1 cells previously transfected with pERAEQ2 plasmid encoding Gα16 (provided by Euroscreen), was transfected. The CHO-K1 and 1321N1 transfected cells were selected with 400 μg/ml G418 in complete medium (10% FBS, 100 units/ml penicillin, 100 μg/ml streptomycin and 2.5 μg/ml amphotericin B in respectively Ham's F12 or DMEM (Dulbecco's modified Eagle's) medium) two days after transfection and maintained in the same medium. The AG32 cells were maintained in the same DMEM complete medium supplemented with 500 μg/ml zeocin.
The pool of G418-resistant clones was tested for its functional IP3 response to several nucleotides, according to the method described above. The cells were challenged by various nucleotides at a concentration of 100 μM for 30 s: ATP, ADP, UTP, UDP, ITP, IDP, TDP.
Concentration-action curves for ADP, 2MeSADP and ADPβS. […] 1321N1 transfected cells were incubated in the presence of various concentrations of ADP, 2MeSADP and ADPβS for 30 s. The data represent the mean±S.D. of triplicate experimental points obtained in one representative experiment of three.
AG32 cells were seeded (200,000 cells per dish) on 35 mm (diameter) Petri dishes and labeled for 24 h with 5 μCi/ml [3H]-myoinositol in inositol free DMEM containing 5% fetal calf serum, antibiotics, amphotericin, sodium pyruvate, and 400 μg/ml of G418. Cells were incubated for 2 h in Krebs-Ringer Hepes (KRH) buffer (124 mM NaCl, 5 mM KCl, 1.25 mM MgSO4, 1.45 mM CaCl2, 1.25 mM KH2PO4, 25 mM Hepes (pH 7.4) and 8 mM D-glucose). The cells were then incubated in presence of ADP, ATP or 2MeSATP for 30 s. The incubation was stopped by the addition of 1 ml of an ice-cold 3% perchloric acid solution. Prior to the stimulation, ATP and 2MeSATP (1 mM solutions) were incubated for 90 min at room temperature with 20 units/ml creatine phosphokinase (CPK) and 10 mM creatine phosphate (CP). The reaction was stopped by addition of 10 mM iodoacetamide.
AG32 cells were seeded (200,000 cells per dish) on 35 mm (diameter) Petri dishes and labeled for 24 h with 5 μCi/ml [^3H]-myoinositol in inositol free DMEM containing 5% fetal calf serum, antibiotics, amphotericin, sodium pyruvate, and 400 μg/ml of G418. Cells were incubated for 2 h in Krebs-Ringer Hepes (KRH) buffer (124 mM NaCl, 5 mM KCl, 1.25 mM MgSO4, 1.45 mM CaCl2, 1.25 mM KH2PO4, 25 mM Hepes (pH 7.4) and 8 mM D-glucose). The cells were then incubated in presence of two different concentrations (100 nM and 10 μM) of ADP or ApnA (n=3-6) for 30 s. The incubation was stopped by the addition of 1 ml of an ice-cold 3% perchloric acid solution.
AG32 cells were seeded (200,000 cells per dish) on 35 mm (diameter) Petri dishes and labeled for 24 h with 5 μCi/ml [^3H]-myoinositol in inositol free DMEM containing 5% fetal calf serum, antibiotics, amphotericin, sodium pyruvate, and 400 μg/ml of G418.

[2] = target: T1, GPR86 (P2Y13) human receptor; assay: Western blot of phosphorylated Erk1 and Erk2 in GPR86-transfected CHO-K1 cells; format: cell-based; parameters: expressed in transfected cells; details: pertussis toxin 100 ng/ml for 18 h; agonist 1 μM, 5 or 30 minutes
Description: To investigate changes in the activation status of the MAP kinases Erk1 and Erk2 upon stimulation of the human GPR86 receptor, whole CHO-K1 transfected cell extracts were analysed by Western blotting using a specific antibody for the dually phosphorylated kinases (at Thr^202 and Tyr^204), which are the active forms of Erk. Western Blot Analysis of phosphorylated Erk1 and Erk2 proteins.
GPR86-transfected CHO-K1 cells were seeded at 1.5×10^6 cells/dish. After 24 h, the cells were serum-starved for 2 h in KRH buffer. After stimulation with the agonist, the cells were scraped in 1 ml of PBS pH 7.3 (137 mM NaCl, 2.7 mM KCl, 4.3 mM Na2HPO4.7H2O and 1.4 mM KH2PO4). The cells were recovered by centrifugation and lysed in 150 μl of Laemmli buffer (10% (w/v) glycerol, 5% (v/v) mercaptoethanol, 2.3% (w/v) SDS, 62.5 mM Tris-HCl pH 6.8). The protein concentration was determined using the method of Minamide and Bamburg (27). The same amount of protein for each condition was electrophoresed in a 12% SDS-polyacrylamide gel. Proteins were then transferred overnight at 60 V and 4° C. onto a nitrocellulose membrane using 20 mM Tris, 154 mM glycine, 20% (v/v) methanol as a transfer buffer. Immunodetection was achieved using the enhanced chemiluminescence Western blotting detection system (ECL, Amersham Phammacia Biotech) using a biotinylated-secondary mouse antibody ( 1/25,000). The monoclonal antibody specific for the dually phosphorylated forms of Erk1 and Erk2 (at Thr^202 and Tyr^204) was used at 1/1000-dilution.
In CHO-K1 cells, phosphorylated Erk1 and Erk2 had the predicted molecular mass of 44 and 42 kDa, respectively. […] GPR86-transfected CHO-K1 cells were stimulated during different times or with various concentrations of ADP and 2MeSADP or water (CONT). The effect of 100 ng/ml pertussis toxin (PTx) has been tested at 5 and 30 min in the presence of 1 μM ADP or 2MeSADP. Blotting and immunodetection were achieved as described using the enhanced chemiluminescence Western blotting detection system (ECL, Amersham Pharmacia Biotech).

[3] = AG32 cells, nucleotides pretreated with creatine phosphokinase and creatine phosphate, 30 s, read-out: EC50, stimulation of GPR86 receptor activity ([3H]IP3)
[4] = 1321N1 cells expressing GPR86 and Gα16

Nc1ncnc2c1ncn2[C@@H]1O[C@H](COP(=O)(O)OP(=O)(O)OP(=O)(O)OC[C@H]2O[C@@H](n3cnc4c(N)ncnc43)[C@H](O)[C@@H]2O)[C@@H](O)[C@H]1O [Ap3A]
effect on IP3 accumulation ([1]; AG32 cells, 30 s): almost equal to that of ADP

Nc1ncnc2c1ncn2[C@@H]1O[C@H](COP(=O)(O)OP(=O)(O)OP(=O)(O)OP(=O)(O)OP(=O)(O)OP(=O)(O)OC[C@H]2O[C@@H](n3cnc4c(N)ncnc43)[C@H](O)[C@@H]2O)[C@@H](O)[C@H]1O [Ap6A]
effect on IP3 accumulation ([1]; AG32 cells, 30 s): inactive

O=c1ccn([C@@H]2O[C@H](COP(=O)(O)OP(=O)(O)O)[C@@H](O)[C@H]2O)c(=O)[nH]1 [UDP]
IP3 response to nucleotides [1]: induced an IP3 response

Poly[A]
activity on human GPR86 after creatinephosphate/creatinephosphokinase treatment ([1]; AG32 cells, 30 s, FIG. 10): still able to activate GPR86
EC50 ([1]; AG32 cells, after creatinephosphate/creatinephosphokinase treatment, concentration in AMP equivalent, read-out: EC50, activation of GPR86 ([3H]IP3)): 205 ± 60 µM

pertussis toxin
inhibition of the ADP response (IP3) ([1]; ADP 300 nM, 18 hours pretreatment with 100 ng/ml pertussis toxin, mean±range of two independent experiments): 86±8%
effect on Erk phosphorylation induced by ADP or 2-MeSADP [2]: strongly inhibited

CSc1nc(N)c2ncn([C@@H]3O[C@H](COP(=O)(O)OP(=O)(O)OP(=O)(O)O)[C@@H](O)[C@H]3O)c2n1 [2MeSATP, 2-methylthio-ATP]
IP3 response to nucleotides [1]: responses were lost after HPLC-purification
IP3 responses after treatment of the nucleotide solutions with CPK and CP (ATP-regenerating system) [1]: abolished
agonist character at human P2Y13 receptor ([1]; AG32 cells): partial agonists
EC50 [1, 3]: 1.5 ± 0.2 µM

Nc1ncnc2c1ncn2[C@@H]1O[C@H](COP(=O)(O)OP(=O)(O)OP(=O)(O)OP(=O)(O)OP(=O)(O)OC[C@H]2O[C@@H](n3cnc4c(N)ncnc43)[C@H](O)[C@@H]2O)[C@@H](O)[C@H]1O [Ap5A]
effect on IP3 accumulation ([1]; AG32 cells, 30 s): inactive

adenosine 5′-O-(2-thiodiphosphate) [ADPβS]
EC50 ([1]; 1321N1 cells expressing GPR86 and Gα16, 30 s, mean±S.D. of three independent experiments, read-out: EC50, IP3 accumulation): 0.0484 ± 0.0004 µM

O=c1[nH]cnc2c1ncn2[C@@H]1O[C@H](COP(=O)(O)OP(=O)(O)O)[C@@H](O)[C@H]1O [IDP]
IP3 response to nucleotides [1]: induced an IP3 response

Cc1cn([C@H]2C[C@H](O)[C@@H](COP(=O)(O)OP(=O)(O)O)O2)c(=O)[nH]c1=O [TDP]
IP3 response to nucleotides [1]: No IP3 response

Nc1ncnc2c1ncn2[C@@H]1O[C@H](COP(=O)(O)O)[C@@H](O)[C@H]1OP(=O)(O)O [A2P5P, adenosine 2′,5′-diphosphate]
IP3 response [1, 4]: No IP3 response

Nc1ncnc2c1ncn2[C@@H]1O[C@H](COP(=O)(O)OP(=O)(O)OP(=O)(O)O)[C@@H](O)[C@H]1O [ATP]
IP3 response to nucleotides [1]: responses were lost after HPLC-purification
IP3 responses after treatment of the nucleotide solutions with CPK and CP (ATP-regenerating system) [1]: abolished
agonist character at human P2Y13 receptor ([1]; AG32 cells): partial agonists
EC50 [1, 3]: 4.2 ± 0.8 µM

Nc1ncnc2c1ncn2[C@@H]1O[C@H](COP(=O)(O)O)[C@@H](OP(=O)(O)O)[C@H]1O [A3P5P, adenosine 3′,5′-diphosphate]
IP3 response [1, 4]: No IP3 response

O=c1[nH]cnc2c1ncn2[C@@H]1O[C@H](COP(=O)(O)OP(=O)(O)OP(=O)(O)O)[C@@H](O)[C@H]1O [ITP]
IP3 response to nucleotides [1]: No IP3 response

Nc1ncnc2c1ncn2[C@@H]1O[C@H](COP(=O)(O)OS(=O)(=O)O)[C@@H](OP(=O)(O)O)[C@H]1O [A3P5PS, adenosine 3′-phosphate 5′-phosphosulfate]
IP3 response [1, 4]: No IP3 response

O=c1ccn([C@@H]2O[C@H](COP(=O)(O)OP(=O)(O)OP(=O)(O)O)[C@@H](O)[C@H]2O)c(=O)[nH]1 [UTP]
IP3 response to nucleotides [1]: No IP3 response

Nc1ncnc2c1ncn2[C@@H]1O[C@H](COP(=O)(O)OP(=O)(O)OP(=O)(O)OP(=O)(O)OC[C@H]2O[C@@H](n3cnc4c(N)ncnc43)[C@H](O)[C@@H]2O)[C@@H](O)[C@H]1O [Ap4A]
effect on IP3 accumulation ([1]; AG32 cells, 30 s): inactive
